Tests used:
h-NAAA [1] = biological target: T1, h-NAAA (Homo sapiens (Human), UniProt Q02083); test: Fluorogenic h-NAAA assay; type: biochemical; details: PAMCA substrate 2.0 μM, pH 4.5, 30 min pre-incubation
Protocol: (§1) Human recombinant proteins were obtained from HEK-293 stable overexpressing NAAA, AC and FAAH cell lines, respectively. Cells were grown in Dulbecco's modified Eagle medium (DMEM) containing 10% FBS, 1% penicillin/streptomycin, 1% glutamine and 500 μg/mL G418. To obtain membrane preparation cells were scraped off with cold phosphate-buffered saline (PBS) and collected by centrifugation (300×g, 7 min, 4° C.). Cell pellets were stored at −80° C. until protein preparation.
(§2) Preparation of enzyme-enriched lysate (h-NAAA and hAC). HEK-293 cells stably transfected with the human NAAA or human AC coding sequences were used as enzyme source. […] The suspension was finally ultracentrifuged at 105,000×g for 1 h at 4° C., supernatants were collected, protein concentration was measured and samples aliquoted and stored at −80° C. until use.
The assay was run in 96-well microplates (Black OptiPlate™-96 F; PerkinElmer, Massachusetts, USA), in a total reaction volume of 200 μL. h-NAAA protein preparation (4.0 μg) was pre-incubated for 30 min with various concentrations of test compounds or vehicle control (DMSO 5%) in 100 mM citrate/phosphate buffer (pH 4.5) containing 3.0 mM DTT, 0.1% NP40 0.1%, 0.05% BSA, 150 mM NaCl. […] Fluorescence was measured with EnVision 2014 Multilabel Reader (PerkinElmer, Massachusetts, USA) using an excitation wavelength of 355 nm and emission 460 nm. […]
Target sequence in this assay (Q02083 29-359): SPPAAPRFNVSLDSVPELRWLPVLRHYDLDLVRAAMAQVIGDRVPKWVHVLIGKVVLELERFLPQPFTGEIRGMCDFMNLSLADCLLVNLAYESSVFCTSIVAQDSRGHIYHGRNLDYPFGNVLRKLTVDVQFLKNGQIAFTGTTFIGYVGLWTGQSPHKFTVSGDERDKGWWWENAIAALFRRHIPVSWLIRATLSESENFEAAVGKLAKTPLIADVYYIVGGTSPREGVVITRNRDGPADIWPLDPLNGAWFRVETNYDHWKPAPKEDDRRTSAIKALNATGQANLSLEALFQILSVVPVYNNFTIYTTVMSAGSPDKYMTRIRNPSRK

h-AC (Acid Ceramidase) = h-AC (Acid Ceramidase) (Homo sapiens (Human), UniProt Q13510); test: Fluorogenic h-AC assay; type: biochemical; details: pH 4.5, 10 min pre-incubation
h-AC (Acid Ceramidase), sequence (Q13510 22-395): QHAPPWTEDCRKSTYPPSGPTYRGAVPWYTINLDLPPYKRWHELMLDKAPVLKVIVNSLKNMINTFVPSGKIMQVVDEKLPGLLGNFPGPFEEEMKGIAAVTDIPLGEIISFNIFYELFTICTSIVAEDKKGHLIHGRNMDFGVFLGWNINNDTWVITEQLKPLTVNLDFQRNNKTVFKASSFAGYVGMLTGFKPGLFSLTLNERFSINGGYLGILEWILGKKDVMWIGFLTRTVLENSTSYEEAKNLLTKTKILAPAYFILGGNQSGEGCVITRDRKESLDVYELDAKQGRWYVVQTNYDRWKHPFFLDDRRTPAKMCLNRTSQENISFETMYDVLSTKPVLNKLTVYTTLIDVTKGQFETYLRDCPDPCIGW
Protocol: as §1, §2
The assay was run in 96-well microplates (Black OptiPlate™-96 F; PerkinElmer, Massachusetts, USA) in a total reaction volume of 100 μL. h-AC protein preparation (2.0 μg) was pre-incubated for 10 min with various concentrations of test compounds or vehicle control (DMSO 5%) in 25 mM sodium acetate buffer (pH 4.5). […] Fluorescence was measured with EnVision 2014 Multilabel Reader (PerkinElmer, Massachusetts, USA) using an excitation wavelength of 355 nm and emission 460 nm. […]

[2] = biological target: h-FAAH1 (Fatty Acid Amide Hydrolase) (Homo sapiens (Human), UniProt O00519); test: Fluorogenic h-FAAH assay; type: biochemical; details: AMC arachidonoyl amide 800 nM, pH 7.4, 50 min pre-incubation
h-FAAH1 (Fatty Acid Amide Hydrolase), sequence (O00519 whole entry): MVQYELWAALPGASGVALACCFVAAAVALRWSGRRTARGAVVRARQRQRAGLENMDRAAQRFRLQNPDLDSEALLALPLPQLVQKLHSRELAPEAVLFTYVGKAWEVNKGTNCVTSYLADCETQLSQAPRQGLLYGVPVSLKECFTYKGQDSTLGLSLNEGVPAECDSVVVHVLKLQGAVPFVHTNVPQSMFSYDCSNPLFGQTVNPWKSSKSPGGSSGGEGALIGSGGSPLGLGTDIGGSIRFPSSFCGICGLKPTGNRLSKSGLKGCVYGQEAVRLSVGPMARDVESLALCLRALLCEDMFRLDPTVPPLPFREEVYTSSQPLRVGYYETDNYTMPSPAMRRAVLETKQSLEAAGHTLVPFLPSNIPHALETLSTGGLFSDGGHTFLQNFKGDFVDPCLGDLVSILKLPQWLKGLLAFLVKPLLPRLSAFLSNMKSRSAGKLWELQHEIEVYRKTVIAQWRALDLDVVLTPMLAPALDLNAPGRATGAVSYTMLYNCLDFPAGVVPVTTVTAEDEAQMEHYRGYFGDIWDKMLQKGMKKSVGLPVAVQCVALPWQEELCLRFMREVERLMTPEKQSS
Protocol: as §1
Preparation of membrane-enriched lysate (h-FAAH). […]
The fluorescent assay to measure FAAH activity was performed in 96 wells black plates: 2.5 μg of human FAAH-1 membrane preparation were pre-incubated for 50 min at 37° C., in 190 μL of assay buffer (50 mM TrisHCl pH 7.4, 0.05% Fatty acid-free BSA) with 5 μL of inhibitor or 5 μL DMSO to measure FAAH total activity. […] The reaction was carried out for 45 minutes at 37° C. and fluorescence was measured with EnVision 2014 Multilabel Reader (PerkinElmer, Massachusetts, USA) (excitation wavelength 355 nm/emission wavelength 460 nm). The concentration causing half-maximal inhibition (IC50) was determined by nonlinear regression analysis of the Log [concentration]/response curves generated with mean replicate values using a four-parameter Hill equation curve fitting with GraphPad Prism 5 (GraphPad Software Inc., CA, USA).

h-NAAA [3] = biological target: T1, h-NAAA; test: Dialysis test (reversibility of inhibition); type: biochemical
Target sequence in this assay (Q02083 29-359): as the sequence (Q02083 29-359) above

h-NAAA [4] = biological target: T1, h-NAAA; test: Competitive Activity Based Protein Profiling (ABPP); type: biochemical; details: 20 μM, lysosomal extracts of h-NAAA overexpressing HEK293 cells, probe ARN14686
Protocol: FIG. 1 is a picture showing the SDS-PAGE analysis resulting from the Competitive Activity Based Protein Profiling (ABPP): in summary, lysosomal extracts of h-NAAA overexpressing HEK293 cells were incubated with a vehicle (2% DMSO), ARN15393 (covalent h-NAAA inhibitor) or ARN16186, for 2 h before addition of probe ARN14686; a rhodamine fluorophore was inserted by a click chemistry. The arrow indicates NAAA;
(§3) h-NAAA was produced and purified from h-NAAA overexpressing HEK293 cell line as described (ACS Med Chem Lett 2012, 3, 422-426). The purified enzyme was incubated in activation buffer [100 mM Sodium Phosphate/Sodium Citrate Buffer, 3 mM DL-dithiothreitol (DTT), 0.1% Triton X100, pH 4.5] for 3 h at 37° C. and the enzyme activation was checked by SDS-PAGE and Coomassie blue staining.
For competitive ABPP, 50 μL of lysosomal enrichment (0.5 mg/mL) from of h-NAAA-overexpressing HEK293 cell line were incubated 2 h at 37° C. with ARN16186 or covalent inhibitor ARN15393^(*^) at a final concentration of 20 μM (DMSO 2%). At the end of this pre-incubation time, the activity based probe undec-10-ynyl-N—[(S)-2-oxoazetidin-3-yl]carbamate (ARN14686) (ACS Chem. Biol. 2015, 10, 2057-2064) was added at 20 μM for 15 min or for 3.5 h at 37° C. […] Samples (10 μL) were analysed by SDS-PAGE and gel florescence was scanned at 532 nm wavelength (Fuji Film FLA-9000 instrument).
Target sequence in this assay (Q02083 29-359): as above

h-NAAA [5] = biological target: T1, h-NAAA; test: Inhibitors recovery assay (LC/MS); type: biochemical; details: LC/MS recovery study, 1 μM compound, 2 h at 37° C. with h-NAAA
Protocol: FIG. 2 is a histogram resulting from the inhibitors recovering assay: ordinate: % recovery of compounds after h-NAAA incubation; ARN16186 and covalent inhibitor ARN15393 were incubated with NAAA (right bars) or buffer alone (left bars) and quantified in supernatant after protein precipitation;
as §3
Target sequence in this assay (Q02083 29-125): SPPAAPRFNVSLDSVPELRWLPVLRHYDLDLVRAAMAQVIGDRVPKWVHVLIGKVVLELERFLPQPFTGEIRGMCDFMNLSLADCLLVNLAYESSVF
Target sequence in this assay (Q02083 126-359): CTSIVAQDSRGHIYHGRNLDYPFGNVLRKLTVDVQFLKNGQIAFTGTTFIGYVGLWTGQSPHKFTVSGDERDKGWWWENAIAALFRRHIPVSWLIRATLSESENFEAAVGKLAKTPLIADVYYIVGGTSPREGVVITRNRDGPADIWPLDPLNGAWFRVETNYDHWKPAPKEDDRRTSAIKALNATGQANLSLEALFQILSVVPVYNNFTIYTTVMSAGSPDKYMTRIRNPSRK
h-NAAA (25 μL of a 2 μM solution) was incubated with ARN16186 or covalent inhibitor ARN15393 at the concentration of 1 μM in activation buffer, 2 h at 37° C. Samples were next precipitated with ten volumes of acetonitrile and centrifuged 10 min at 12000×g. The supernatants were recovered and analysed by LCMS/MS for the presence of the added compound. No-protein control samples (buffer only) were used as 100% recovery reference. Compound was detected and quantified using a Waters ACQUITY UPLC/MS TQD system consisting of a TQD (Triple Quadrupole Detector) mass spectrometer, equipped with an electrospray ionization interface. […] Compound was quantified monitoring its MRM peak area. […]

[6] = system: sciatic nerve chronic constriction injury (CCI) model of persistent hyperalgesia and allodynia; test: Chronic Constriction Injury (CCI) of the sciatic nerve; type: in vivo; details: mice
Protocol: Sciatic nerve ligations were performed according to Bennett and Xie (Pain. 1988, 33, 87-107). Adult male CD1 mice were anesthetized with 2-3% isoflurane, and the left sciatic nerve was exposed at mid-thigh level through a small incision and tied at two distinct sites (spaced at a 2-mm interval) with a silk thread. The wound was closed with a single muscle suture and skin clips, and dusted with streptomycin. In sham-operated animals, the nerve was exposed but not tied. All experiments were performed in a quiet room, and experimenters were blinded to the treatment protocol at the time of the test.
Heat hyperalgesia was assessed by the method of Hargreaves et al. (Pain. 1988, 32, 77-88) measuring the latency to withdraw the hind paw from a focused beam of radiant heat (thermal intensity: infrared 3.0) applied to the plantar surface in a plantar test apparatus (Ugo Basile). The cutoff time was set at 30 s.
Tactile allodynia (dynamic plantar esthesiometer; Ugo Basile) was assessed as described by La Rana et al. (Neuropharmacology 2008, 54,521-529) using the Von Frey dynamic plantar aesthesiometer (DPA). Animals were placed individually in a small testing arena (20 cm×18.5 cm×13 cm) with a wire mesh floor for 5 min. The DPA device was positioned beneath the animal, so that the filament was directly under the plantar surface of the paw to be tested. […] The DPA automatically records the force at which the paw is withdrawn and the withdrawal latency (latency and maximum force are directly related, because the device progressively increases force until withdrawal occurs). Mechanical hyperalgesia was recorded according to the Randall Sellito measurement.
ARN16186 was then studied for its ability to alleviate established chronic pain condition (therapeutic effect). The compound was tested in the sciatic nerve chronic constriction injury (CCI) model of persistent hyperalgesia and allodynia in mice, a model that has both inflammatory and neuropathic pain components. ARN16186 (0.3, 1.0, 3.0 and 10 mg kg^−1, p.o.) was administered on day 7 and day 14, after left sciatic nerve ligation, and pain readouts were measured 2 h after dosing.

[7] = single administration 0.3, 1.0, 3.0 and 10 mg kg^−1 p.o., day 7 and day 14 after ligation, 2 h after dosing, dose-dependent

Question: For CCCCc1ccc(OC2CC3CCC(C2)N3S(=O)(=O)c2c(C)n[nH]c2C)cc1 (stereo not drawn) [ARN16186, (endo)-3-(4-butylphenoxy)-8-[(3,5-dimethyl-1H-pyrazol-4-yl)sulfonyl]-8-azabicyclo[3.2.1.]octane], which IC50 (h-NAAA [1]) is on record?
Answer: 0.023 ± 0.004 µM

Question: And the IC50 (h-AC (Acid Ceramidase))?
Answer: > 30 µM

Question: And the IC50 [2]?
Answer: > 30 µM

Question: And the “recovery in a dialysis test” value (h-NAAA [3]; after 24 h)?
Answer: ca. 30%

Question: And the “mode of inhibition (dialysis test)” value (h-NAAA [3]; after 24 h dialysis)?
Answer: partially reversible

Question: And the mechanism of inhibition (h-NAAA [4])?
Answer: non-covalent

Question: What about the mechanism of inhibition (h-NAAA [5]) of the same compound?
Answer: non-covalent

Question: What about the “dose with full effect on hyperalgesia and allodynia” value ([6]; p.o., single administration, readout 2 h after dosing) of the same compound?
Answer: 10 mg/kg

Question: And the mechanical hyperalgesia [6, 7]?
Answer: reduce significantly

Question: And the tactile allodynia [6, 7]?
Answer: reduce significantly

Question: What about the thermal hyperalgesia [6, 7] of the same compound?
Answer: reduce significantly

Reference: patent publication US10364242B2, “Modulation of N-acylethanolamine-hydrolysing acid amidase (NAAA) for disease treatment” (FONDAZIONE ISTITUTO ITALIANO DI TECNOLOGIA, priority 2017, dated 2019)
